The values below come from US20100248365A1, “GANGLIOSIDE BIOSYNTHESIS MODULATORS” (ZACHARON PHARMACEUTICALS, INC., priority 2009, published 2010).

The experiment has as its target T1, ST3Gal 1 (rat recombinant a 2,3-Sialytransferase) (Rattus norvegicus, UniProt Q6H8N0).
T1 sequence (Q6H8N0 1-340): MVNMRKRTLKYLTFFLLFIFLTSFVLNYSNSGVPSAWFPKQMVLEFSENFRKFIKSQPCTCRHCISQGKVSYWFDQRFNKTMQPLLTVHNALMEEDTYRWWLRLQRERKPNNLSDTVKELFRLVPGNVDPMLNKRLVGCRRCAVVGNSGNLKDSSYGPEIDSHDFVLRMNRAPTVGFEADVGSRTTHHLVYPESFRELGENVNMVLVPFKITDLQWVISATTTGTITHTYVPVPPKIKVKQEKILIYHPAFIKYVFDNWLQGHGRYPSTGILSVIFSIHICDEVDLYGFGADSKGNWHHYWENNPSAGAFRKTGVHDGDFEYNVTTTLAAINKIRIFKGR
Kind of experiment: ST3Gal 1 assay with 2AA-labeled GSL standards, HPLC readout. It is filed as biochemical. The note with it: b350 ties FIG. 5/6 (compound 1) to the ST3Gal 1 assay. On the procedure:
The enzyme ST3Gal 1 (rat recombinant a 2,3-Sialytransferase) assay was carried out with 2AA-labeled GSL standards as substrate. The complete incubation mixture contained the following components in a final volume of 20 ul: 50 mM cacodylate buffer, pH6.2, 10 mM MgCl2, 0.2% TX100, 2 mM CMP-sialic acid (CMP-SA), 100 ng 2AA-GM1/GD1b, 10 μU of ST3Gal1 enzyme. The reaction was carried out @37° C. for 30 min. Control reactions were done without CMP-SA. The reaction was analyzed by HPLC as described above. The % of product conversion was assessed by comparison to control samples. The enzyme titration curve was determined from 10, 3, 1, 0.3 and 0.1 μU of enzyme. The time course was determined using 10 μU of the enzyme, @ 0, 5, 10, 15, 30, 45, 60, 90, and 120 min. […] FIG. 5 illustrates the activity of late stage selective ganglioside inhibitors.

For `Cc1nn(-c2ccccc2)c(C)c1C=NN1CCN(Cc2ccccc2Cl)CC1` [compound 1, 4-(2-chlorobenzyl)-N-((3,5-dimethyl-1-phenyl-1H-pyrazol-4-yl)methylene)piperazin-1-amine], the “inhibition of ST3Gal 1 enzyme activity (FIG. 5)” value is reported as “inhibition”.
